Data on 34 molecules can be found in patent US20120283217A1, “MODULATORS OF AMYLOID-BETA PRODUCTION” (SATORI PHARMACEUTICALS, INC., priority 2006, published 2012).

Molecules are shown by their SMILES.

Consider `C/C=C1/CC[C@H]2[C@@H]3CC=C4C[C@@H](O[Si](C)(C)C(C)(C)C)CC[C@]4(C)[C@H]3CC[C@]12C` [Compound I-6], for which the melting point lay within 128 to 130 °C. To `CC(=O)O[C@H]1CC[C@]23C[C@]24CC[C@]2(C)[C@@H]([C@H](C)CC(=O)C(C#N)=P(c5ccccc5)(c5ccccc5)c5ccccc5)CC[C@@]2(C)C4CCC3C1(C)C` (stereo in doubt) [Compound I-19] belongs 203 to 205 °C; to `C/C=C1/CCC2C3CC=C4C[C@@H](O)CC[C@]4(C)C3CC[C@]12C` (stereo partly shown), 168 to 170 °C; to `CC(=O)O[C@H]1CC[C@]23C[C@]24CC[C@]2(C)[C@@H]([C@H](C)CCC(=O)O)CC[C@@]2(C)C4CCC3C1(C)C` (stereo in doubt) [Compound I-4, 3-β-O-acetyl-25,26,27-Trinorcycloartan-24-oic acid], 201 to 212 °C. To `C[C@H](C1CO1)[C@H]1C(=O)C[C@H]2[C@@H]3CC=C4C[C@@H](O[Si](C)(C)C(C)(C)C)CC[C@]4(C)[C@H]3CC[C@]12C` (stereo partly shown) belongs 103 to 104 °C; to `CC(=O)O[C@H]1CC[C@]23C[C@]24CC[C@]2(C)[C@@H]([C@H](C)CC(=O)C(F)(F)F)CC[C@@]2(C)C4CCC3C1(C)C` (stereo in doubt) [Compound I-18, 3β-Acetoxy-9,19-Cyclo-4,4,14-trimethyl-23-oxo-24-trifluorocholane], 170 to 173 °C. `C[C@H](C(O)CO)C1C(=O)C[C@H]2[C@@H]3CC=C4C[C@@H](O[Si](C)(C)C(C)(C)C)CC[C@]4(C)[C@H]3CC[C@]12C` (stereo partly shown) showed a melting point of 172 to 175 °C. To `C=C[C@@H](C)[C@H]1CC[C@@]2(C)[C@@H]3CC[C@H]4C(C)(C)[C@@H](OC(C)=O)CC[C@@]45C[C@@]35CC[C@]12C` belongs 145 to 147 °C; to `C/C=C1/C(=O)C[C@H]2[C@@H]3CC=C4C[C@@H](O[Si](C)(C)C(C)(C)C)CC[C@]4(C)[C@H]3CC[C@]12C` [Compound I-8], 161 to 163 °C; to `CC(=O)O[C@H]1CC[C@]23C[C@]24CC[C@]2(C)[C@@H]([C@H](C)CCC(O)C(C)C)CC[C@@]2(C)[C@@H]4CC[C@H]3C1(C)C` (stereo partly shown), 126 to 128 °C.

Consider `C=C[C@@H](C)[C@H]1[C@H](O)C[C@H]2[C@@H]3CC=C4C[C@@H](O[Si](C)(C)C(C)(C)C)CC[C@]4(C)[C@H]3CC[C@]12C`, for which the melting point is 156 to 158 °C.

In turn, `CC(=O)O[C@H]1CC[C@]23C[C@]24CC[C@]2(C)[C@@H]([C@H](C)CCC(=O)C(F)(F)F)CC[C@@]2(C)[C@@H]4CC[C@H]3C1(C)C` came in with a melting point of 133 to 135 °C. To `C=C[C@@H](C)[C@H]1C(=O)C[C@H]2[C@@H]3CC[C@H]4C[C@@H](O[Si](C)(C)C(C)(C)C)CC[C@]4(C)[C@H]3CC[C@]12C` belongs 132 to 134 °C; to `CC(=O)O[C@H]1CC[C@]23C[C@]24CC[C@]2(C)[C@@H]([C@H](C)CC(=O)O)CC[C@@]2(C)C4CCC3C1(C)C` (stereo in doubt) [Compound I-17, 3β-Acetoxy-9,19-Cyclo-4,4,14-trimethyl-24-norchol-23-oic acid], 222 to 224 °C. To `CC(C)(C)[Si](C)(C)O[C@H]1CC[C@@]2(C)C(=CC[C@@H]3[C@@H]2CC[C@]2(C)C(=O)CC[C@@H]32)C1` [Compound I-13] belongs 150 to 152 °C.

For the molecule `CC(=O)O[C@H]1CC[C@]2(C)C3CC[C@]4(C)[C@@H]([C@H](C)CC(=O)O)CC[C@@]4(C)C3CCC2C1(C)C` (stereo partly shown), the melting point lay in the range of 203 to 205 °C. Consider `C=C[C@@H](C)[C@H]1C2(CC3C4CC=C5C[C@@H](O[Si](C)(C)C(C)(C)C)CC[C@]5(C)C4CC[C@@]31C)OCCO2` (stereo partly shown), for which the melting point fell in the range of 112 to 114 °C.

With `C[C@H](C#N)[C@H]1C(=O)C[C@H]2[C@@H]3CC=C4C[C@@H](O)CC[C@]4(C)[C@H]3CC[C@]12C`, the melting point was in the range of 124 to 126 °C. To `CC(=O)O[C@H]1CC[C@]23C[C@]24CC[C@]2(C)[C@@H]([C@H](C)CCC5OC5(C)C)CC[C@@]2(C)[C@@H]4CC[C@H]3C1(C)C` (stereo partly shown) belongs 141 to 143 °C; to `COC(=O)C(=O)C[C@@H](C)[C@H]1CC[C@@]2(C)C3CCC4C(C)(C)[C@@H](OC(C)=O)CC[C@@]45C[C@@]35CC[C@]12C` (stereo in doubt) [Compound I-20], 120 to 122 °C. The same measure for `C=C[C@@H](C)[C@H]1C(=O)CC2C3CC=C4C[C@@H](O)CC[C@]4(C)C3CC[C@@]21C` (stereo partly shown): 125 to 127 °C; for `C/C=C1/C(=O)C[C@H]2[C@@H]3CC[C@H]4C[C@@H](O[Si](C)(C)C(C)(C)C)CC[C@]4(C)[C@H]3CC[C@]12C` (stereo in doubt): 210 to 212 °C; for `C/C=C1\C(=O)C[C@H]2[C@@H]3CC=C4C[C@@H](O[Si](C)(C)C(C)(C)C)CC[C@]4(C)[C@H]3CC[C@]12C`: 138 to 142 °C.

Molecule `C/C=C1\C(=O)C[C@H]2[C@@H]3CC=C4C[C@@H](O)CC[C@]4(C)[C@H]3CC[C@]12C` showed a melting point of 112 to 113 °C. The same measure for `CC(C#N)[C@H]1[C@@H](O)CC2C3CC=C4C[C@@H](O[Si](C)(C)C(C)(C)C)CC[C@]4(C)C3CC[C@@]21C` (stereo in doubt) [Compound I-10]: 290 to 292 °C; for `C/C=C1/CC[C@H]2[C@@H]3CC[C@H]4C[C@@H](O[Si](C)(C)C(C)(C)C)CC[C@]4(C)[C@H]3CC[C@]12C` (stereo in doubt): 136 to 137 °C. To `CC(=O)O[C@H]1CC[C@]23C[C@]24CC[C@]2(C)[C@@H]([C@H](C)CCC5(C(C)C)CO5)CC[C@@]2(C)[C@@H]4CC[C@H]3C1(C)C` (stereo partly shown) belongs 129 to 131 °C. The same measure for `C/C=C1/C(O)CC2C3CC=C4C[C@@H](O[Si](C)(C)C(C)(C)C)CC[C@]4(C)C3CC[C@]12C` (stereo in doubt) [Compound I-7]: 137 to 139 °C. For the molecule `CC(=O)O[C@H]1CC[C@]23C[C@]24CC[C@]2(C)[C@@H]([C@H](C)CCC(=O)C(C)C)CC[C@@]2(C)C4CCC3C1(C)C` (stereo partly drawn) [Compound I-3, 24-Oxocycloartanol-3-β-O-acetate], the melting point fell in the range of 119 to 121 °C. The same measure for `CC(C)(C)[Si](C)(C)O[C@H]1CC[C@@]2(C)[C@@H](CC[C@@H]3[C@@H]2CC[C@]2(C)C(=O)CC[C@@H]32)C1`: 159 to 162 °C; for `C/C=C1/C(O)CC2C3CC=C4C[C@@H](O)CC[C@]4(C)C3CC[C@]12C` (stereo partly shown): 151 to 154 °C; for `COC(=O)C(=O)C[C@@H](C)[C@H]1CC[C@@]2(C)C3CCC4C(C)(C)[C@@H](OC(C)=O)CC[C@]4(C)C3CC[C@]12C` (stereo partly shown): 125 to 127 °C. To `C/C=C1/[C@H](O)C[C@H]2[C@@H]3CC[C@H]4C[C@@H](O[Si](C)(C)C(C)(C)C)CC[C@]4(C)[C@H]3CC[C@]12C` (stereo in doubt) belongs 145 to 147 °C; to `C/C=C1/C(=O)CC2C3CC=C4C[C@@H](O)CC[C@]4(C)C3CC[C@]12C` (stereo partly shown), 124 to 126 °C.

One may read the melting point as the temperature of the solid-liquid transition.
